Laboratory results: patent US20240391923A1, “METHIONINE ADENOSYLTRANSFERASE 2A INHIBITOR FOR TREATING MTAP DELETION-TYPE CANCER” (SUZHOU GENHOUSE BIO CO., LTD., priority 2022, published 2024)
pIC50: −log10 of the molar value. Like-named read-outs stand apart in the source and are kept apart here.

Legend:
DOHH-2 cell strain = test: Tumor cell proliferation inhibition assay (CellTiter-Glo), DOHH-2; format: cell-based; conditions: Homo sapiens, 120 h, DOHH-2 cells, 5-day treatment; for IC50: IC50 score, read-out: Tumor cell 5-day relative growth inhibition (DOHH-2) (nM), score; for pIC50: IC50 value, read-out: Tumor cell 5-day relative growth inhibition (DOHH-2)
Experimental: After the HCT116-MTAP-knockout (−/−) cell strain, the HCT116-MTAP wild-type(+/+)-cell strain, the DOHH-2 cell strain, or the Hut-78 cell strain was treated with the test compound for 5 days, the ATP level was measured using a CellTiter-Glo kit of Promega to evaluate the inhibition of the test compound against the growth of the tumor cell strain.
In the present application, the HCT116-MTAP-knockout (−/−) cell strain, the HCT116-MTAP wild-type (+/+)-cell strain, the DOHH-2 cell strain, or the Hut-78 cell strain was seeded into a 96-well cell culture plate at an appropriate cell density. After 24 h, the cells were treated using the test compounds diluted 1:3 fold at the highest concentration of 10 μM for 10 gradients, and a DMSO treatment group was set up separately. The cells were cultured in a 37° C./5% CO2 incubator for 5 days.

[1] = test system: HCT116-MTAP-knockout (−/−) cell strain; test: Tumor cell proliferation inhibition assay (CellTiter-Glo), HCT116-MTAP-knockout (-/-); format: cell-based; conditions: Homo sapiens, 120 h, HCT116-MTAP-knockout (−/−) cells, 5-day treatment; for IC50: IC50 score, read-out: Tumor cell 5-day relative growth inhibition (HCT116-MTAP−/−) (nM), score; for pIC50: IC50 value, read-out: Tumor cell 5-day relative growth inhibition (HCT116-MTAP−/−)
Method in brief: (§1)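 Growth inhibition is evaluated from cellular ATP measured with CellTiter-Glo once cells have been treated for 5 days. Compounds are added 24 h after seeding as ten threefold dilutions starting at 10 μM, with a separate DMSO treatment group.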

[2] = Pharmacokinetic test in mice (IV and PO); format: in vivo; conditions: mouse, plasma, BALB/c mice; for half-life: read-out: T½ (converted); for Vd: read-out: Vz
[3] = molecular target: MAT2A recombinant protein (Homo sapiens, UniProt P31153); test: MAT2A inhibitory activity (malachite green colorimetric enzyme assay); format: biochemical
Method in brief: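 Recombinant human MAT2A with L-methionine and ATP in 50 mM HEPES pH 7.5, 50 mM KCl, 10 mM MgCl2, 10 mM DTT, 60 min at room temperature. Phosphate released detected by malachite green reagent (15 min) at 630 nm. Ten-point 1:3 series from 1000 nM final; IC50 by variable-slope non-linear regression.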

[4] = test system: SDMA in human colon cancer cell line HCT116; test: Cell symmetric dimethylarginine (SDMA) test, In-cell Western, HCT116 (MTAP wild-type); format: cell-based
Method in brief: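 HCT116 cells treated 4 days at 37° C with compound, top concentration 6 μM, 1:4 dilutions, 6 points, versus DMSO. Fixed cells stained for SDMA with DRAQ5 normalisation; 800/700 nm ratio after background subtraction fitted by non-linear regression for IC50.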

[5] = test system: HCT116-MTAP wild-type (+/+)-cell strain; test: Tumor cell proliferation inhibition assay (CellTiter-Glo), HCT116-MTAP wild-type (+/+); format: cell-based; conditions: Homo sapiens, 120 h, HCT116-MTAP wild-type (+/+) cells, 5-day treatment; for IC50: IC50 score, read-out: Tumor cell 5-day relative growth inhibition (HCT116-MTAP+/+) (nM), score; for pIC50: IC50 value, read-out: Tumor cell 5-day relative growth inhibition (HCT116-MTAP+/+)
Method in brief: as §1

[6] = test system: SDMA in HCT116-MTAP-knockout cell line; test: Cell symmetric dimethylarginine (SDMA) test, In-cell Western, HCT116-MTAP-knockout; format: cell-based; conditions: Homo sapiens, 96 h
Hut-78 cell strain = test: Tumor cell proliferation inhibition assay (CellTiter-Glo), Hut-78; format: cell-based; conditions: Hut-78 cells, 5-day treatment; for IC50: IC50 score, read-out: Tumor cell 5-day relative growth inhibition (Hut-78) (nM), score; for pIC50: IC50 value, read-out: Tumor cell 5-day relative growth inhibition (Hut-78)
Method in brief: as §1

[7] = IC50 score class, read-out: MAT2A Inhibition (score)
[8] = Homo sapiens, HCT-116, 96 h, IC50 score class, read-out: Cell 96 h SDMA Inhibition (HCT116-MTAP+/+) (score)
[9] = Homo sapiens, HCT-116, 96 h, read-out: Cell 96 h SDMA inhibition (HCT116-MTAP+/+)
[10] = IC50 score class, read-out: Cell 96 h SDMA Inhibition (HCT116-MTAP−/−) (score)
[11] = read-out: Cell 96 h SDMA Inhibition (HCT116-MTAP−/−)

Chain of MAT2A recombinant protein (P31153 whole entry): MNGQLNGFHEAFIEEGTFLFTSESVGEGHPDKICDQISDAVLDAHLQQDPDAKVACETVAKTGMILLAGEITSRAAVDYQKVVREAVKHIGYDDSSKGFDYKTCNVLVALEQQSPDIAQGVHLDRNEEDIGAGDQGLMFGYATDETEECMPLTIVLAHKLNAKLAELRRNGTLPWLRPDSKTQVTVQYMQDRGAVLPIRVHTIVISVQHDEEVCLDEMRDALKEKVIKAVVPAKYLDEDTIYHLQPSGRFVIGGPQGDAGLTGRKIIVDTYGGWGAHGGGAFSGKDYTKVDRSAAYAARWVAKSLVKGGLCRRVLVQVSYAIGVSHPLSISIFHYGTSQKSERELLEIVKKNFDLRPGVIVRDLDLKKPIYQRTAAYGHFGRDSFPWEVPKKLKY

Compound | IC50 (DOHH-2 cell strain) | pIC50 (DOHH-2 cell strain) | pIC50 [3, 7] | pIC50 ([3]; read-out: MAT2A Inhibition) | pIC50 [4, 8] | pIC50 [4, 9] | pIC50 [6, 10] | pIC50 [6, 11] | IC50 (Hut-78 cell strain; Homo sapiens, HuT78, 120 h) | pIC50 (Hut-78 cell strain; Homo sapiens, HuT78, 120 h) | other results
CCn1cc2c(n1)c(=O)n(-c1cccnc1)c1nc(C(F)(F)F)ccc21 [Compound B29] | 500 to 2000 nM | 6.14 | > 7.00 | 7.73 | 6.00 to 6.70 | 6.22 | > 6.70 | 7.04 | – | – | IC50 [1]: < 500 nM; pIC50 [1]: 6.81; AUC ([2]; IV 2 mg/kg): 1.86 µM·h; clearance ([2]; IV 2 mg/kg): 46.7 mL/min/kg; bioavailability ([2]; IV 2 mg/kg, PO 10 mg/kg): 95%; half-life ([2]; IV 2 mg/kg): 18 min; Vd ([2]; IV 2 mg/kg): 1.3 L/kg; AUC ([2]; PO 10 mg/kg): 9.32 µM·h; half-life ([2]; PO 10 mg/kg): 25.8 min; IC50 [5]: < 500 nM; pIC50 [5]: 6.36
O=c1c2nn(CC(F)F)cc2c2ccc(Cl)cc2n1-c1cccnc1 [Compound B40] | ≥ 2000 nM | 5.62 | – | – | < 5.52 | 5.35 | 6.00 to 6.70 | 6.43 | 500 to 2000 nM | 5.89 | –
Cc1ncccc1-n1c(=O)c2nn(C)cc2c2ccc(C(F)(F)F)nc21 [Compound B76] | < 500 nM | 7.09 | – | – | 6.00 to 6.70 | 6.67 | > 6.70 | 8.00 | – | – | IC50 (Hut-78 cell strain): < 500 nM; pIC50 (Hut-78 cell strain): 7.98
CC(C)n1cc2c(n1)c(=O)n(-c1cccnc1)c1cc(Cl)ccc21 [Compound B39] | ≥ 2000 nM | 5.42 | – | – | 5.52 to 6.00 | 5.81 | 6.00 to 6.70 | 6.23 | < 500 nM | 7.01 | –
Cc1ncccc1-n1c(=O)c2nn(C)cc2c2ccc(Cl)cc21 [Compound B65] | < 500 nM | 7.20 | > 7.00 | 7.47 | – | – | – | – | – | – | IC50 (Hut-78 cell strain): < 500 nM; pIC50 (Hut-78 cell strain): 7.62; pIC50 ([4]; 96 h, IC50 score class, read-out: Cell 96 h SDMA Inhibition (HCT116-MTAP+/+) (score)): > 6.70; pIC50 ([4]; 96 h, read-out: Cell 96 h SDMA inhibition (HCT116-MTAP+/+)): 6.72
O=c1c2[nH]ncc2c2ccc(Cl)cc2n1-c1cccnc1 [Compound B13] | 500 to 2000 nM | 6.01 | > 7.00 | 7.76 | 5.52 to 6.00 | 5.55 | > 6.70 | 6.73 | – | – | IC50 [1]: < 500 nM; pIC50 [1]: 6.55; IC50 [5]: 500 to 2000 nM; pIC50 [5]: 6.03
CCn1cc2c(n1)c(=O)n(-c1cccnc1C)c1cc(Cl)ccc21 [Compound B30] | < 500 nM | 6.40 | > 7.00 | 7.49 | 6.00 to 6.70 | 6.64 | > 6.70 | 8.12 | < 500 nM | 7.48 | –
O=c1c2nn(Cc3cccnc3)cc2c2ccc(Cl)cc2n1-c1cccnc1 [Compound B47] | 500 to 2000 nM | 5.78 | > 7.00 | 7.53 | < 5.52 | 4.33 | > 6.70 | 6.81 | < 500 nM | 6.70 | –
Cn1cc2c(n1)c(=O)n(-c1cccc(O)c1)c1cc(C(F)(F)F)ccc21 [Compound B150] | 500 to 2000 nM | 6.18 | > 7.00 | 7.56 | 6.00 to 6.70 | 6.06 | > 6.70 | 7.27 | < 500 nM | 6.86 | –
Cc1ncccc1-n1c(=O)c2nn(C)cc2c2ccc(OC(F)(F)F)cc21 [Compound B77] | < 500 nM | 6.41 | > 7.00 | 7.37 | 6.00 to 6.70 | 6.40 | > 6.70 | 7.48 | < 500 nM | 7.06 | –
CCn1nc2c(=O)n(-c3cccnc3)c3cc(Cl)ccc3c2c1C [Compound B17] | < 500 nM | 6.40 | > 7.00 | 7.62 | 6.00 to 6.70 | 6.20 | > 6.70 | 7.29 | – | – | AUC ([2]; IV 2 mg/kg): 3.46 µM·h; clearance ([2]; IV 2 mg/kg): 27.7 mL/min/kg; bioavailability ([2]; IV 2 mg/kg, PO 10 mg/kg): 127%; half-life ([2]; IV 2 mg/kg): 14.4 min; Vd ([2]; IV 2 mg/kg): 0.6 L/kg; AUC ([2]; PO 10 mg/kg): 22.5 µM·h; half-life ([2]; PO 10 mg/kg): 28.2 min
CCn1cc2c(n1)c(=O)n(-c1c(C)ccnc1C)c1cc(Cl)ccc21 [Compound B31] | ≥ 2000 nM | 5.09 | > 7.00 | 7.19 | 6.00 to 6.70 | 6.01 | > 6.70 | 6.77 | – | – | –
Cn1cc2c(n1)c(=O)n(-c1cccnc1)c1cc(C(F)(F)F)ccc21 [Compound B69] | 500 to 2000 nM | 5.94 | > 7.00 | 7.55 | 5.52 to 6.00 | 5.83 | > 6.70 | 6.96 | – | – | –
